Test results published in patent publication US20240261268A1, “METHODS OF SLOWING AN INCREASE IN BRAIN VENTRICULAR VOLUME” (VANDA PHARMACEUTICALS INC., priority 2022, published 2024).

Key:
[1] = other S1P receptor modulators, given for comparison; cited from earlier work
[2] = test system: adult subjects with relapsing MS; experiment: Phase III study: premature treatment discontinuation and deaths; type: in vivo; details: ponesimod 20 mg, teriflunomide 14 mg
Description: A total of 1468 subjects were screened. Of those, 1133 subjects were randomized (567 to ponesimod 20 mg and 566 to teriflunomide 14 mg) across 162 sites in 28 countries, and 1131 subjects received at least one dose of study drug. The disposition of subjects is summarized in Table 1 and a summary of reasons (primary reason) for treatment discontinuation are shown in Table 2. Overall treatment and study discontinuation were balanced across both treatment arms. A total of 6.5% and 2.5% of the subjects discontinued due to AEs or tolerability related reasons in ponesimod 20 mg and teriflunomide 14 mg, respectively, while 1.9% and 4.3% discontinued due to efficacy related reasons. There were 2 deaths reported during the study—both on teriflunomide 14 mg.

[3] = test system: adult subjects with relapsing MS; experiment: Phase III study ponesimod 20 mg vs teriflunomide 14 mg: treatment-emergent adverse events (Safety Set)
Description: A prospective, multicenter, randomized, double-blind, active controlled, parallel-group, phase III, superiority study was conducted.
The treatment period consisted of an up-titration period (from Day 1 to 14) and a maintenance period (Day 15 until EOT).
To reduce the first-dose effect of ponesimod, an up-titration scheme was implemented from Day 1 to Day 14: • Days 1 and 2; 2 mg. • Days 3 and 4; 3 mg. • Days 5 and 6; 4 mg. • Day 7; 5 mg. • Day 8; 6 mg. • Day 9; 7 mg. • Day 10; 8 mg. • Day 11; 9 mg. • Days 12, 13, and 14; 10 mg. • Day 15 until EOT; 20 mg.
The Safety Set (SAF) included all randomized subjects who received at least one dose of study treatment. Subjects were analyzed based on actual treatment taken, not randomized treatment.

[4] = test system: adult subjects with relapsing MS; experiment: MRI-based scaled brain ventricular volume (lateral + 3rd ventricle / ICV); type: in vivo, human; details: p<0.001 vs baseline, ponesimod n=428, teriflunomide n=427
Excerpt: Efficacy variable/timepoint: The endpoint was increase in ventricular volume up to the end of study (EOS). All available data up to EOS, regardless of treatment discontinuation was included (ITT approach).
Ventricular Volume (VV) data were obtained from MRI images from patients that participated in the OPTIMUM study. Data were obtained from those patients who had MRI imagines at baseline week 60 and week 108. One pre-requisite was to select only those patients who had all images completed.
Ventricular volume was estimated from MRI images collected at baseline (BL), week 60 and week 108 for 428 subjects treated with ponesimod and 427 with teriflunomide. Lesions were identified using T2-weighted and Proton Density (PD) MRIs. Ventricles were segmented using lesion-filled T1 images using with the longitudinal stream in FreeSurfer 7. For each subject, scaled ventricular volume (V) was computed as the sum of lateral and 3rd ventricle volumes divided by the intracranial volume (ICV) and expressed as a percentage. Average V (V) and average change in V (ΔV) from baseline at weeks 60 and 108 were compared across treatment arms. Ventricular volumes were correlated with Multiple Sclerosis Functional Composite (MSFC), Paced Auditory Serial Addition Test (PASAT), Average Timed 25 Foot Walk (T25FW), Average 9-Hole Peg Test (9-HPT), Single Digit Modality Test (SDMT), FSIQ-RMS and Expanded Disability Score (EDSS).

[5] = test system: adult subjects with relapsing MS; experiment: 12-lead ECG heart rate and first-dose monitoring on Day 1; type: in vivo, human
Description: The incidence of treatment-emergent heart rate and rhythm (including hypotension) AESIs on Day 1 was higher in the ponesimod 20 mg arm (2.1%) than in the teriflunomide 14 mg arm (0.4%). However, the overall incidence of first dose AESI on Day 1 was low (2.1%) in ponesimod. None of these events were serious nor led to permanent discontinuation of study treatment. Discharge criteria at 4 hours post-dose were met for ca. 99% of subjects. […] ECG HR effect: nadir at 2 hours post-dose (siponimod—3-4 hours, fingolimod—around by 6 hours). Low incidence of low HR outliers (post-dose HR≤40 bpm), all 3 of them with a pre-treatment HR of <55 bpm, which is a known risk factor for post-dose bradycardia with SIP receptor modulators.
The mean heart rate reduction compared to pre-dose reached a maximum for ponesimod 20 mg at 2-hours post dose, −8.7 bpm compared to −1.7 bpm for teriflunomide 14 mg (FIG. 2).

[6] = Day 1, ponesimod N=565, teriflunomide N=566, Safety Set
[7] = ponesimod 20 mg N=565, teriflunomide 14 mg N=566, Safety Set
[8] = ponesimod 20 mg, teriflunomide 14 mg
[9] = treatment-emergent, ponesimod 20 mg N=565, teriflunomide 14 mg N=566, Safety Set

For `CCc1cc(/C(C)=N/OCc2ccc(C3CCCCC3)c(C(F)(F)F)c2)ccc1CN1CC(C(=O)O)C1` [siponimod], the “ECG HR effect: time of nadir post-dose” value [1] is given as 3 to 4 h.

For `C/C(O)=C(\C#N)C(=O)Nc1ccc(C(F)(F)F)cc1` [teriflunomide, reference compound], the “Subjects discontinued due to AEs or tolerability related reasons” value [2] was 2.5%, the “Incidence of treatment-emergent heart rate and rhythm (including hypotension) AESIs on Day 1” value ([3]; Day 1, ponesimod 20 mg arm, teriflunomide 14 mg arm) was 0.4% and the “AESI effect on heart rate and rhythm (including hypotension) on Day 1: Subjects with at least one AE” value [3, 6] was 2(0.4) n (%). For the same compound, the “AESI heart rate and rhythm on Day 1, PT: Atrioventricular block first degree” value [3, 6] was 0 n (%), the “AESI heart rate and rhythm on Day 1, PT: Bradycardia” value [3, 6] was 0 n (%) and the “AESI heart rate and rhythm on Day 1, PT: Bundle branch block left” value [3, 6] was 0 n (%). For the same compound, the “AESI heart rate and rhythm on Day 1, PT: Bundle branch block right” value [3, 6] was 0 n (%), the “AESI heart rate and rhythm on Day 1, PT: Defect conduction intraventricular” value [3, 6] was 0 n (%) and the “AESI heart rate and rhythm on Day 1, PT: Electrocardiogram QT prolonged” value [3, 6] was 1(0.2) n (%). The “AESI heart rate and rhythm on Day 1, PT: Presyncope” value [3, 6] was 1(0.2) n (%), the “AESI heart rate and rhythm on Day 1, PT: Sinus arrhythmia” value [3, 6] was 0 n (%) and the “AESI heart rate and rhythm on Day 1, PT: Sinus bradycardia” value [3, 6] was 0 n (%). For the same compound, the “Treatment-emergent AESI: Infection” value ([3]; only if serious or severe, ponesimod 20 mg N=565, teriflunomide 14 mg N=566, Safety Set) was 5(0.9) n (%), the “TEAEs leading to premature discontinuation of study drug: Subjects with at least one AE” value [3, 7] was 34(6.0) n (%) and the “TEAEs leading to premature discontinuation, SOC: Blood and lymphatic system disorders” value [3, 7] was 2(0.4) n (%). The “TEAEs leading to premature discontinuation, SOC: Cardiac disorders” value [3, 7] was 2(0.4) n (%), the “TEAEs leading to premature discontinuation, SOC: Eye disorders” value [3, 7] was 0 n (%) and the “TEAEs leading to premature discontinuation, SOC: Gastrointestinal disorders” value [3, 7] was 4(0.7) n (%). The “TEAEs leading to premature discontinuation, SOC: General disorders and administration site conditions” value [3, 7] was 2(0.4) n (%), the “TEAEs leading to premature discontinuation, SOC: Hepatobiliary disorders” value [3, 7] was 2(0.4) n (%) and the “TEAEs leading to premature discontinuation, SOC: Investigations” value [3, 7] was 10(1.8) n (%). For the same compound, the “TEAEs leading to premature discontinuation, SOC: Musculoskeletal and connective tissue disorders” value [3, 7] was 1(0.2) n (%), the “TEAEs leading to premature discontinuation, SOC: Neoplasms benign, malignant and unspecified (incl cysts and polyps)” value [3, 7] was 1(0.2) n (%) and the “TEAEs leading to premature discontinuation, SOC: Nervous system disorders” value [3, 7] was 4(0.7) n (%). For the same compound, the “TEAEs leading to premature discontinuation, SOC: Pregnancy, puerperium and perinatal conditions” value [3, 7] was 3(0.5) n (%), the “TEAEs leading to premature discontinuation, SOC: Psychiatric disorders” value [3, 7] was 1(0.2) n (%) and the “TEAEs leading to premature discontinuation, SOC: Reproductive system and breast disorders” value [3, 7] was 1(0.2) n (%). The “TEAEs leading to premature discontinuation, SOC: Respiratory, thoracic and mediastinal disorders” value [3, 7] was 0 n (%), the “TEAEs leading to premature discontinuation, SOC: Skin and subcutaneous tissue disorders” value [3, 7] was 2(0.4) n (%) and the “TEAEs leading to premature discontinuation, SOC: Social circumstances” value [3, 7] was 1(0.2) n (%). The “TEAEs leading to premature discontinuation, SOC: Surgical and medical procedures” value [3, 7] was 1(0.2) n (%), the “TEAEs leading to premature discontinuation, SOC: Vascular disorders” value [3, 7] was 0 n (%) and the “Treatment-emergent AESI: Effect on heart rate and rhythm (including hypotension)” value [3, 7] was 24(4.2) n (%). For the same compound, the “Treatment-emergent AESI: Hepatobiliary disorders/Liver enzyme abnormality” value [3, 7] was 82(14.5) n (%), the “Treatment-emergent AESI: Herpetic infection” value [3, 7] was 27(4.8) n (%) and the “Treatment-emergent AESI: Hypertension” value [3, 7] was 51(9.0) n (%). For the same compound, the “Treatment-emergent AESI: Macular edema” value [3, 7] was 1(0.2) n (%), the “Treatment-emergent AESI: Non-skin malignancy” value [3, 7] was 1(0.2) n (%) and the “Treatment-emergent AESI: Pulmonary events” value [3, 7] was 15(2.7) n (%). For the same compound, the “Treatment-emergent AESI: Seizure” value [3, 7] was 1(0.2) n (%), the “Treatment-emergent AESI: Skin malignancy” value [3, 7] was 1(0.2) n (%) and the “AESI category hepatobiliary disorders/liver enzyme abnormality” value [3, 8] was 14.5%. The AESI category hypertension [3, 8] was 9.0%, the “AESI category pulmonary events” value [3, 8] was 2.7% and the “Proportion of subjects who experienced at least one SAE” value [3, 8] was 8.1%. For the same compound, the “Proportion of subjects who experienced at least one TEAE” value [3, 8] was 88.2%, the “TEAE: ALT increased” value [3, 8] was 9.4% and the “TEAE: headache” value [3, 8] was 12.7%. The “TEAE: nasopharyngitis” value [3, 8] was 16.8%, the “TEAE: upper respiratory tract infection” value [3, 8] was 10.4% and the “TEAEs leading to premature treatment discontinuation” value [3, 8] was 6.0%. For the same compound, the “Subjects with at least one AE” value [3, 9] was 499(88.2) n (%), the “Subjects with at least one AE leading to study drug discontinuation” value [3, 9] was 34(6.0) n (%) and the “Subjects with at least one Drug-Related AE” value [3, 9] was 238(42.0) n (%). The “Subjects with at least one Fatal AE” value [3, 9] was 2(0.4) n (%), the “Subjects with at least one Serious AE” value [3, 9] was 46(8.1) n (%) and the “Subjects with at least one Severe AE” value [3, 9] was 26(4.6) n (%). For the same compound, the “Average change in scaled ventricular volume from baseline (Δ60V), percentage of ICV” value ([4]; week 60) was 0.065%, the “Average change in scaled ventricular volume from baseline (Δ108V), percentage of ICV” value ([4]; week 108) was 0.124% and the “Mean heart rate reduction compared to pre-dose (maximum)” value ([5]; Day 1, 2 hours post dose, 12-lead ECG) was −1.7 bpm. The “Subjects with asymptomatic post-dose HR≤40 bpm” value ([5]; Day 1, all had pre-treatment HR <55 bpm) was “none”.

In the case of `CCCCCCCCc1ccc(CCC(N)(CO)CO)cc1` [fingolimod], the “ECG HR effect: time of nadir post-dose” value [1] is listed as about 6 h.
